Data taken from patent publication US20250250230A1, “HETEROCYCLIC COMPOUND” (TAKEDA PHARMACEUTICAL COMPANY LIMITED, priority 2022, published 2025).

biological target: T1, human orexin type 2 receptor (Homo sapiens, UniProt O43614); assay: Measurement of orexin type 2 receptor agonist activity (calcium fluorescence, Fluo-4 AM, FDSS); assay type: cell-based; conditions: test compound 3 μM; CHO cells expressing human OX2 receptor; DMSO = 0%, orexin A (human) = 100%
T1 construct: expressed in transfected cells
T1 sequence (O43614 1-444): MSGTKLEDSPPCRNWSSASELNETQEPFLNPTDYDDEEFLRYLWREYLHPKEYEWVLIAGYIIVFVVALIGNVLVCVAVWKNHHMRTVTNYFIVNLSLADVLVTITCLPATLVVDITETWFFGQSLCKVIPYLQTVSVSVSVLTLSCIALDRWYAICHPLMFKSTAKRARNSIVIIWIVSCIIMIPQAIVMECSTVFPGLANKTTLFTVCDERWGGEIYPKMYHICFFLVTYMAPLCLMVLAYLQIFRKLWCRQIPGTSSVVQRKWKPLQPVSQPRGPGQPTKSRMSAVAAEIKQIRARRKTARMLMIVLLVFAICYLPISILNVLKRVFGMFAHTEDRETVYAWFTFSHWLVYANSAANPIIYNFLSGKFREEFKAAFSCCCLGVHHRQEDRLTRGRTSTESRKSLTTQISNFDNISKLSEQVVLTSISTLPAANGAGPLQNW
Method in brief: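 CHO-K1 cells stably expressing human OX2R were loaded with Fluo-4 AM (30 min 37 °C, 30 min RT) in HEPES-buffered HBSS with 0.1% BSA and probenecid. Calcium fluorescence was followed on FDSS for 2 min after compound addition; activity normalised to DMSO (0%) and 10 nM orexin A (100%).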

SMILES	OX2R agonist activity (3 μM, %)
COCC1(C(=O)N2CC[C@H]2CNS(C)(=O)=O)CC1c1ccc(F)cc1-c1c(F)cccc1F (stereo partly drawn) [Example 435, N-({(2S)-1-[(1R,2S)-1-(methoxymethyl)-2-(2′,5,6′-trifluoro[1,1′-biphenyl]-2-yl)cyclopropane-1-carbonyl]azetidin-2-yl}methyl)methanesulfonamide, or N-({(2S)-1-[(1S,2R)-1-(methoxymethyl)-2-(2′,5,6′-trifluoro[1,1′-biphenyl]-2-yl)cyclopropane-1-carbonyl]azetidin-2-yl}methyl)methanesulfonamide]	101%
CS(=O)(=O)NC1CN(C(=O)C2CC2c2c(F)cccc2-c2c(F)cccc2F)CC1(F)F (stereo not drawn) [Example 226, N-{4,4-difluoro-1-[2-(2′,3,6′-trifluoro[1,1′-biphenyl]-2-yl)cyclopropane-1-carbonyl]pyrrolidin-3-yl}methanesulfonamide optical isomer]	104%
Cc1cccc(C2CC2C(=O)N2CCCC(NS(C)(=O)=O)C2)c1-c1ccccc1 (racemic) [Example 89, a mixture of rac-N-{(3R)-1-[(1R,2R)-2-(6-methyl[1,1′-biphenyl]-2-yl)cyclopropane-1-carbonyl]piperidin-3-yl}methanesulfonamide and rac-N-{(3S)-1-[(1R,2R)-2-(6-methyl[1,1′-biphenyl]-2-yl)cyclopropane-1-carbonyl]piperidin-3-yl}methanesulfonamide]	64%
CS(=O)(=O)NC1CCN(C(=O)C2CC2c2ccccc2-c2c(F)cccc2F)CCC1(F)F (racemic) [Example 212, a mixture of rac-N-{(4R)-1-[(1R,2R)-2-(2′,6′-difluoro[1,1′-biphenyl]-2-yl)cyclopropane-1-carbonyl]-5,5-difluoroazepan-4-yl}methanesulfonamide and rac-N-{(4S)-1-[(1R,2R)-2-(2′,6′-difluoro[1,1′-biphenyl]-2-yl)cyclopropane-1-carbonyl]-5,5-difluoroazepan-4-yl}methanesulfonamide]	91%
O=C(C1CC1c1ccccc1-c1c(F)cccc1F)N1CCC(NS(=O)(=O)C2CC2)C1 (racemic) [Example 37, a mixture of rac-N-{(3R)-1-[(1R,2R)-2-(2′,6′-difluoro[1,1′-biphenyl]-2-yl)cyclopropane-1-carbonyl]pyrrolidin-3-yl}cyclopropanesulfonamide and rac-N-{(3S)-1-[(1R,2R)-2-(2′,6′-difluoro[1,1′-biphenyl]-2-yl)cyclopropane-1-carbonyl]pyrrolidin-3-yl}cyclopropanesulfonamide]	101%
CN(C)S(=O)(=O)N[C@H]1CCN(C(=O)[C@@H]2C[C@H]2c2ccccc2-c2c(F)cccc2F)C1 [Example 289, N′-{(3S)-1-[(1R,2R)-2-(2′,6′-difluoro[1,1′-biphenyl]-2-yl)cyclopropane-1-carbonyl]pyrrolidin-3-yl}-N,N-dimethylsulfuric diamide]	99%
CS(=O)(=O)NC1CCCN(C(=O)C2CC2c2ccccc2-c2cc(F)ccc2F)CC1 (racemic) [Example 51, a mixture of rac-N-{(4R)-1-[(1R,2R)-2-(2′,5′-difluoro[1,1′-biphenyl]-2-yl)cyclopropane-1-carbonyl]azepan-4-yl}methanesulfonamide and rac-N-{(4S)-1-[(1R,2R)-2-(2′,5′-difluoro[1,1′-biphenyl]-2-yl)cyclopropane-1-carbonyl]azepan-4-yl}methanesulfonamide]	75%
CN(C)S(=O)(=O)NC1COCCN(C(=O)[C@@H]2C[C@H]2c2ccccc2-c2c(F)cccc2F)C1 (stereo partly drawn) [Example 295, N′-{(6S)-4-[(1R,2R)-2-(2′,6′-difluoro[1,1′-biphenyl]-2-yl)cyclopropane-1-carbonyl]-1,4-oxazepan-6-yl}-N,N-dimethylsulfuric diamide, or N′-{(6R)-4-[(1R,2R)-2-(2′,6′-difluoro[1,1′-biphenyl]-2-yl)cyclopropane-1-carbonyl]-1,4-oxazepan-6-yl}-N,N-dimethylsulfuric diamide]	100%
CC1(C(=O)N2CC[C@H]2CNS(C)(=O)=O)CC1(F)c1ccccc1-c1c(F)cccc1F (stereo partly drawn) [Example 356, N-({(2S)-1-[(1R,2S)-2-(2′,6′-difluoro[1,1′-biphenyl]-2-yl)-2-fluoro-1-methylcyclopropane-1-carbonyl]azetidin-2-yl}methyl)methanesulfonamide, or N-({(2S)-1-[(1S,2R)-2-(2′,6′-difluoro[1,1′-biphenyl]-2-yl)-2-fluoro-1-methylcyclopropane-1-carbonyl]azetidin-2-yl}methyl)methanesulfonamide]	84%
CS(=O)(=O)NC1CCCN(C(=O)C2CC2c2cc(F)ccc2-c2c(F)cccc2F)CC1 (racemic) [Example 96, a mixture of rac-N-{(4R)-1-[(1R,2R)-2-(2′,4,6′-trifluoro[1,1′-biphenyl]-2-yl)cyclopropane-1-carbonyl]azepan-4-yl}methanesulfonamide and rac-N-{(4S)-1-[(1R,2R)-2-(2′,4,6′-trifluoro[1,1′-biphenyl]-2-yl)cyclopropane-1-carbonyl]azepan-4-yl}methanesulfonamide]	62%
CS(=O)(=O)NC1CCCN(C(=O)C2CC2c2ccc(C(F)F)cc2-c2c(F)cccc2F)C1 (racemic) [Example 230, a mixture of rac-N-[(3R)-1-{(1R,2R)-2-[5-(difluoromethyl)-2′,6′-difluoro[1,1′-biphenyl]-2-yl]cyclopropane-1-carbonyl}piperidin-3-yl]methanesulfonamide and rac-N-[(3S)-1-{(1R,2R)-2-[5-(difluoromethyl)-2′,6′-difluoro[1,1′-biphenyl]-2-yl]cyclopropane-1-carbonyl}piperidin-3-yl]methanesulfonamide]	91%
CS(=O)(=O)N[C@H]1CCN(C(=O)C2CC2(F)c2ccccc2-c2c(F)cccc2F)C1 (single isomer, unassigned) [Example 304, N-{(3S)-1-[(1S,2S)-2-(2′,6′-difluoro [1,1′-biphenyl]-2-yl)-2-fluorocyclopropane-1-carbonyl]pyrrolidin-3-yl}methanesulfonamide, or N-{(3S)-1-[(1R,2R)-2-(2′,6′-difluoro[1,1′-biphenyl]-2-yl)-2-fluorocyclopropane-1-carbonyl]pyrrolidin-3-yl}methanesulfonamide]	93%
CC(C)S(=O)(=O)N[C@@H](C)[C@@H]1CCN1C(=O)[C@@H]1C[C@@]1(F)c1ccccc1-c1c(F)cccc1F [Example 389, N-[(1S)-1-{(2S)-1-[(1S,2S)-2-(2′,6′-difluoro[1,1′-biphenyl]-2-yl)-2-fluorocyclopropane-1-carbonyl]azetidin-2-yl}ethyl]propane-2-sulfonamide]	97%
CS(=O)(=O)NCC1CCN1C(=O)C1CC1c1ccccc1-c1c(F)cccc1F (stereo not drawn) [Example 276, N-({1-[2-(2′,6′-difluoro[1,1′-biphenyl]-2-yl)cyclopropane-1-carbonyl]azetidin-2-yl}methyl)methylsulfonamide optical isomer]	101%
CC(O)[C@@H]1CN(C(=O)[C@@H]2C[C@@]2(F)c2ccccc2-c2c(F)cccc2F)[C@H]1CNS(C)(=O)=O (mixture of isomers) [Example 404, a mixture of N-{[(2R,3R)-1-[(1S,2S)-2-(2′,6′-difluoro[1,1′-biphenyl]-2-yl)-2-fluorocyclopropane-1-carbonyl]-3-[(1R)-1-hydroxyethyl]azetidin-2-yl]methyl}methanesulfonamide and N-{[(2R,3R)-1-[(1S,2S)-2-(2′,6′-difluoro[1,1′-biphenyl]-2-yl)-2-fluorocyclopropane-1-carbonyl]-3-[(1S)-1-hydroxyethyl]azetidin-2-yl]methyl}methanesulfonamide]	95%
CO[C@@H]1CN(C(=O)[C@@H]2C[C@H]2c2ccccc2-c2c(F)cccc2F)C[C@H]1NS(C)(=O)=O [Example 323, N-{(3R,4R)-1-[(1R,2R)-2-(2′,6′-difluoro[1,1′-biphenyl]-2-yl)cyclopropane-1-carbonyl]-4-methoxypyrrolidin-3-yl}methanesulfonamide]	96%
O=C([C@@H]1C[C@@]1(F)c1ccc(F)cc1-c1c(F)cccc1F)N1C[C@@H](F)[C@H]1CNS(=O)(=O)CC1CC1 [Example 445, 1-cyclopropyl-N-({(2R,3R)-3-fluoro-1-[(1S,2S)-2-fluoro-2-(2′,5,6′-trifluoro[1,1′-biphenyl]-2-yl)cyclopropane-1-carbonyl]azetidin-2-yl}methyl)methanesulfonamide]	76%
CS(=O)(=O)N[C@H]1CCCN(C(=O)C2CC2c2ccc(F)cc2-c2c(F)cccc2F)C1 (stereo partly drawn) [Example 201, N-{(3S)-1-[(1R,2R)-2-(2′,5,6′-trifluoro[1,1′-biphenyl]-2-yl)cyclopropane-1-carbonyl]piperidin-3-yl}methanesulfonamide, or N-{(3S)-1-[(1S,2S)-2-(2′,5,6′-trifluoro[1,1′-biphenyl]-2-yl)cyclopropane-1-carbonyl]piperidin-3-yl}methanesulfonamide]	101%
